# Experimental data published in patent US8637550B2, “Heteroaryl diamide compounds useful as MMP-13 inhibitors” (Boehringer Ingelheim International GmbH, priority 2008, dated 2014).
# Biological target: MMP-13 (Homo sapiens, UniProt P45452)
# Assay: EnzoLyte 520 Generic MMP Assay Kit, 5-FAM/QXL520 FRET peptide substrate
# Format: biochemical
# Description: The EnzoLyte™ 520 Generic MMP Assay Kit (AnaSpec Inc.) can detect the activity of several MMPs including MMP-1, 2, 3, 7, 8, 9, 13, and 14. This kit uses a 5-FAM/QXL™520 fluorescence resonance energy transfer (FRET) peptide as an MMP substrate.
row,IC50,Structure (SMILES)
1,0.014 µM,CNC(=O)[C@@H](NC(=O)c1ccc(-c2cccc(CNC(=O)c3ccn(C(F)F)n3)c2)o1)C(C)C [1-Difluoromethyl-1H-pyrazole-3-carboxylic acid 3-[5-((S)-2-methyl-1-methylcarbamoyl-propylcarbamoyl)-furan-2-yl]-benzylamide]
2,0.039 µM,CNC(=O)[C@@H](NC(=O)c1ccc(-c2cccc(CNC(=O)c3cc(C(F)(F)F)n(C)n3)c2)o1)C(C)C [1-Methyl-5-trifluoromethyl-1H-pyrazole-3-carboxylic acid 3-[5-((S)-2-methyl-1-methylcarbamoyl-propylcarbamoyl)-furan-2-yl]-benzylamide]
3,0.3 µM,CNC(=O)[C@@H](NC(=O)c1ccc(-c2cccc(CNC(=O)C3CCCCN3C)c2)o1)C(C)C (stereo partly drawn) [1-Methyl-N-[3-(5-{[(1S)-2-methyl-1-(methylcarbamoyl)propyl]carbamoyl}-2-furyl)benzyl]piperidine-2-carboxamide]
4,0.215 µM,CNC(=O)[C@@H](NC(=O)c1ccc(-c2cccc(CNC(=O)C3CCCN(C)C3)c2)o1)C(C)C (stereo partly drawn) [1-Methyl-N-[3-(5-{[(1S)-2-methyl-1-(methylcarbamoyl)propyl]carbamoyl}-2-furyl)benzyl]piperidine-3-carboxamide]
5,0.38 µM,CNC(=O)[C@@H](NC(=O)c1ccc(-c2cccc(CNC(=O)[C@@H]3CCCN3C)c2)o1)C(C)C [1-methyl-N-[3-(5-{[(1S)-2-methyl-1-(methylcarbamoyl)propyl]carbamoyl}-2-furyl)benzyl]-L-prolinamide]
6,0.38 µM,"CC[C@H](C)[C@H](NC(=O)c1csc(-c2ccc(Cl)cc2)n1)C(=O)NC [2-(4-Chloro-phenyl)-thiazole-4-carboxylic acid ((1S,2S)-2-methyl-1-methylcarbamoyl-butyl)-amide]"
7,0.47 µM,"CNC(=O)[C@@H](NC(=O)c1csc(-c2ccc(Cl)cc2)n1)C1CCCCC1 [2-(4-Chlorophenyl)-N-[(1S)-1-cyclohexyl-2-(methylamino)-2-oxoethyl]-1,3-thiazole-4-carboxamide]"
8,0.009 µM,CNC(=O)[C@@H](NC(=O)c1ccc(-c2cccc(CNC(=O)c3ccnc(Cl)n3)c2)o1)C(C)C [2-Chloro-N-[3-(5-{[(1S)-2-methyl-1-(methylcarbamoyl)propyl]carbamoyl}-2-furyl)benzyl]pyrimidine-4-carboxamide]
9,0.24 µM,CNC(=O)[C@@H](NC(=O)c1ccc(-c2cccc(CNC(=O)OCC(C)C)c2)o1)C1CCCCC1 [2-Methylpropyl [3-(5-{[(1S)-1-cyclohexyl-2-(methylamino)-2-oxoethyl]carbamoyl}furan-2-yl)benzyl]carbamate]
10,0.28 µM,CNC(=O)[C@@H](NC(=O)c1ccc(-c2cccc(CNC(=O)c3cc(C)no3)c2)o1)C(C)C [3-Methyl-isoxazole-5-carboxylic acid 3-[5-((S)-2-methyl-1-methylcarbamoyl-propylcarbamoyl)-furan-2-yl]-benzylamide]
11,0.006 µM,CNC(=O)[C@@H](NC(=O)c1ccc(-c2cccc(CNC(=O)c3nc(C(F)(F)F)cs3)c2)o1)C(C)C [4-Trifluoromethyl-thiazole-2-carboxylic acid 3-[5-((S)-2-methyl-1-methylcarbamoyl-propylcarbamoyl)-furan-2-yl]-benzylamide]
12,0.11 µM,"CNC(=O)[C@@H](NC(=O)c1ccc(-c2ccc(-c3ccnc(C)c3)cn2)o1)C(C)C [5-(2′-Methyl-[3,4′]bipyridinyl-6-yl)-furan-2-carboxylic acid ((S)-2-methyl-1-methylcarbamoyl-propyl)-amide]"
13,0.105 µM,CNC(=O)[C@@H](NC(=O)c1ccc(-c2cccc(CNC(=O)NC(C)(C)C)c2)o1)C1CCCCC1 [5-(3-{[(tert-Butylcarbamoyl)amino]methyl}phenyl)-N-[(1S)-1-cyclohexyl-2-(methylamino)-2-oxoethyl]furan-2-carboxamide]
14,0.395 µM,CNC(=O)[C@@H](NC(=O)c1ccc(-c2ccc(Br)cc2)o1)C1CCCCC1 [5-(4-Bromophenyl)-N-[(1S)-1-cyclohexyl-2-(methylamino)-2-oxoethyl]furan-2-carboxamide]
15,0.3 µM,"CC[C@H](C)[C@H](NC(=O)c1ccc(-c2ccc(Cl)cc2)o1)C(=O)NC [5-(4-Chloro-phenyl)-furan-2-carboxylic acid ((1S,2S)-2-methyl-1-methylcarbamoyl-butyl)-amide]"
16,0.465 µM,CNC(=O)[C@@H](NC(=O)c1ccc(-c2ccc(Cl)cc2)o1)C1CCCC1 [5-(4-Chlorophenyl)-N-[(1S)-1-cyclopentyl-2-(methylamino)-2-oxoethyl]furan-2-carboxamide]
17,0.43 µM,CNC(=O)[C@@H](NC(=O)c1ccc(-c2ccc(Cl)cc2)o1)C1CCNCC1 [5-(4-Chlorophenyl)-N-[(1S)-2-(methylamino)-2-oxo-1-(piperidin-4-yl)ethyl]furan-2-carboxamide]
18,0.475 µM,CNC(=O)[C@@H](NC(=O)c1ccc(-c2ccc(Cl)cc2)o1)C1CCCCC1 [5-(4-chlorophenyl)-N-[(1S)-1-cyclohexyl-2-(methylamino)-2-oxoethyl]furan-2-carboxamide]
19,0.295 µM,CCNC(=O)[C@@H](NC(=O)c1ccc(-c2ccc(C#N)cc2)o1)C1CCCCC1 [5-(4-cyanophenyl)-N-[(1S)-1-cyclohexyl-2-(ethylamino)-2-oxoethyl]furan-2-carboxamide]

row,IC50,Structure (SMILES)
1,0.175 µM,CNC(=O)[C@@H](NC(=O)c1ccc(-c2ccc(C#N)cc2)o1)C1CCCCC1 [5-(4-cyanophenyl)-N-[(1S)-1-cyclohexyl-2-(methylamino)-2-oxoethyl]furan-2-carboxamide]
2,0.195 µM,C[C@@H](CO)NC(=O)[C@@H](NC(=O)c1ccc(-c2ccc(C#N)cc2)o1)C1CCCCC1 [5-(4-cyanophenyl)-N-[(1S)-1-cyclohexyl-2-{[(2S)-1-hydroxypropan-2-yl]amino}-2-oxoethyl]furan-2-carboxamide]
3,0.195 µM,COC[C@H](C)NC(=O)[C@@H](NC(=O)c1ccc(-c2ccc(C#N)cc2)o1)C1CCCCC1 [5-(4-cyanophenyl)-N-[(1S)-1-cyclohexyl-2-{[(2S)-1-methoxypropan-2-yl]amino}-2-oxoethyl]furan-2-carboxamide]
4,0.09 µM,CNC(=O)[C@@H](NC(=O)c1ccc(-c2ccc(C#N)cc2)o1)C1CCOCC1 [5-(4-cyanophenyl)-N-[(1S)-2-(methylamino)-2-oxo-1-(tetrahydro-2H-pyran-4-yl)ethyl]furan-2-carboxamide]
5,0.1 µM,N#Cc1ccc(-c2ccc(C(=O)N[C@H](C(=O)NCCO)C3CCCCC3)o2)cc1 [5-(4-cyanophenyl)-N-{(1S)-1-cyclohexyl-2-[(2-hydroxyethyl)amino]-2-oxoethyl}furan-2-carboxamide]
6,0.17 µM,CC(O)CNC(=O)[C@@H](NC(=O)c1ccc(-c2ccc(C#N)cc2)o1)C1CCCCC1 (stereo partly drawn) [5-(4-cyanophenyl)-N-{(1S)-1-cyclohexyl-2-[(2-hydroxypropyl)amino]-2-oxoethyl}furan-2-carboxamide]
7,0.074 µM,COCCNC(=O)[C@@H](NC(=O)c1ccc(-c2ccc(C#N)cc2)o1)C1CCCCC1 [5-(4-cyanophenyl)-N-{(1S)-1-cyclohexyl-2-[(2-methoxyethyl)amino]-2-oxoethyl}furan-2-carboxamide]
8,0.373 µM,CNC(=O)[C@@H](NC(=O)c1ccc(-c2ccc(-c3ccc(C(F)(F)F)cc3)cc2)o1)C1CCCCC1 [5-(4′-Trifluoromethyl-biphenyl-4-yl)-furan-2-carboxylic acid ((S)-cyclohexyl-methylcarbamoyl-methyl)-amide]
9,0.018 µM,CNC(=O)[C@@H](NC(=O)c1ccc(-c2ccc(OCc3ccccc3)cn2)o1)C(C)(C)O [5-(5-Benzyloxy-pyridin-2-yl)-furan-2-carboxylic acid ((S)-2-hydroxy-2-methyl-1-methylcarbamoyl-propyl)-amide]
10,0.018 µM,CNC(=O)[C@@H](NC(=O)c1ccc(-c2ccc(OCc3ccccc3)cn2)o1)C(C)C [5-(5-Benzyloxy-pyridin-2-yl)-furan-2-carboxylic acid ((S)-2-methyl-1-methylcarbamoyl-propyl)-amide]
11,0.245 µM,CNC(=O)[C@@H](NC(=O)c1ccc(-c2ccc(Cl)cn2)o1)C1CCCCC1 [5-(5-Chloropyridin-2-yl)-N-[(1S)-1-cyclohexyl-2-(methylamino)-2-oxoethyl]furan-2-carboxamide]
12,0.069 µM,CNC(=O)[C@@H](NC(=O)c1ccc(-c2ccc(C#N)cn2)o1)C1CCCCC1 [5-(5-Cyanopyridin-2-yl)-N-[(1S)-1-cyclohexyl-2-(methylamino)-2-oxoethyl]furan-2-carboxamide]
13,0.079 µM,CNC(=O)[C@@H](NC(=O)c1ccc(-c2ccc(-c3ccccc3)cn2)o1)C(C)C [5-(5-Phenyl-pyridin-2-yl)-furan-2-carboxylic acid ((S)-2-methyl-1-methylcarbamoyl-propyl)-amide]
14,0.013 µM,CNC(=O)[C@@H](NC(=O)c1ccc(-c2cccc(CNC(=O)c3cc(Br)n(C)n3)c2)o1)C(C)C [5-Bromo-1-methyl-1H-pyrazole-3-carboxylic acid 3-[5-((S)-2-methyl-1-methylcarbamoyl-propylcarbamoyl)-furan-2-yl]-benzylamide]
15,0.103 µM,"CNC(=O)[C@@H](NC(=O)c1ccc(-c2ccc(NC(=O)c3cn4c(C#N)cccc4n3)cc2)o1)C1CCCCC1 [5-Cyano-N-[4-(5-{[(1S)-1-cyclohexyl-2-(methylamino)-2-oxoethyl]carbamoyl}furan-2-yl)phenyl]imidazo[1,2-a]pyridine-2-carboxamide]"
16,0.16 µM,CNC(=O)[C@@H](NC(=O)c1ccc(-c2cccc(CNC(=O)c3cc(C(F)(F)F)n[nH]3)c2)o1)C(C)C [5-Trifluoromethyl-2H-pyrazole-3-carboxylic acid 3-[5-((S)-2-methyl-1-methylcarbamoyl-propylcarbamoyl)-furan-2-yl]-benzylamide]
17,0.14 µM,"CNC(=O)[C@@H](NC(=O)c1ccc(-c2ccc(-c3cccnc3)cn2)o1)C(C)C [5-[3,3′]Bipyridinyl-6-yl-furan-2-carboxylic acid ((S)-2-methyl-1-methylcarbamoyl-propyl)-amide]"
18,0.062 µM,"CNC(=O)[C@@H](NC(=O)c1ccc(-c2ccc(-c3ccncc3)cn2)o1)C(C)C [5-[3,4′]Bipyridinyl-6-yl-furan-2-carboxylic acid ((S)-2-methyl-1-methylcarbamoyl-propyl)-amide]"
